According to ChEMBL document CHEMBL3580609, “Novel phthalimide derivatives with TNF- and IL-1 expression inhibitory and apoptotic inducing properties” (Medchemcomm, 2014):
Active and inactive are the calls of the source. The rule behind the calls is not given here.

Tests used:
[1] = test system: Peritoneal macrophage cell; test: Inhibition of TNFalpha production in LPS-induced mouse peritoneal macrophages at 50 uM incubated for 24 hrs by sandwich ELISA method; assay type: functional, cell-based
[2] = test system: Peritoneal macrophage cell; test: Inhibition of IL-1beta production in LPS-induced mouse peritoneal macrophages at 50 uM incubated for 24 hrs by sandwich ELISA method; assay type: functional, cell-based
[3] = test system: Jurkat; test: Inhibition of TNFalpha expression in human Jurkat cells containing GFP gene under control of TNF gene promoter at 10 uM incubated for 24 hrs; assay type: functional
[4] = test system: Jurkat; test: Inhibition of TNFalpha expression in human Jurkat cells containing GFP gene under control of TNF gene promoter at 100 uM incubated for 24 hrs; assay type: functional
[5] = test system: Jurkat; test: Inhibition of TNFalpha expression in human Jurkat cells containing GFP gene under control of TNF gene promoter at 100 uM incubated for 24 hrs relative to thalidomide; assay type: functional
[6] = test system: Jurkat; test: Induction of total cell death in human Jurkat cells containing GFP gene under control of TNF gene promoter at 100 uM incubated for 24 hrs by propidium iodide staining based assay
[7] = test system: Jurkat; test: Inhibition of TNFalpha expression in human Jurkat cells containing GFP gene under control of TNF gene promoter incubated for 24 hrs; assay type: functional, cell-based
[8] = test system: Jurkat; test: Induction of apoptosis in human Jurkat cells at 100 uM incubated for 24 hrs by FITC-labeled capsase-3 substrate based Nucview-488 caspase-3 assay; assay type: functional, cell-based
[9] = test system: Jurkat; test: Induction of total cell death in human Jurkat cells containing GFP gene under control of TNF gene promoter at 10 uM incubated for 24 hrs by propidium iodide staining based assay
[10] = test system: Jurkat; test: Induction of apoptosis in human Jurkat cells at 10 uM incubated for 24 hrs by FITC-labeled capsase-3 substrate based Nucview-488 caspase-3 assay; assay type: functional, cell-based
[11] = organism: Mus musculus; test: Reduction in serum cholesterol levels in Swiss white mouse after 16 days; assay type: functional
[12] = organism: Mus musculus; test: Reduction in serum triglyceride levels in Swiss white mouse after 14 days; assay type: functional
[13] = test system: Jurkat; test: Inhibition of TNFalpha expression in human Jurkat cells containing GFP gene under control of TNF gene promoter at 10 uM incubated for 24 hrs relative to thalidomide; assay type: functional

SMILES: COc1ccc(/C=N\NC(=O)[C@H](C)N2C(=O)c3ccccc3C2=O)cc1
- inhibition [1]: Active
- inhibition [2]: Active

SMILES: O=C(N/N=C\c1ccccc1)[C@H](Cc1ccccc1)N1C(=O)c2ccccc2C1=O
- inhibition [3]: inactive
- inhibition at 100 µM [4]: 17%
- inhibition [1]: Active
- fold change (FC) [5]: 3
- inhibition [2]: Active
- Activity [6]: Toxic
- inhibition [7]: Dose-dependent effect

SMILES: C[C@@H](C(=O)NN)N1C(=O)c2ccccc2C1=O
- inhibition [1]: Active
- inhibition [2]: Active

SMILES: C[C@@H](C(=O)N/N=C\c1ccccc1)N1C(=O)c2ccccc2C1=O
- inhibition at 10 µM [3]: 9.8%
- Activity [8]: inactive
- inhibition at 100 µM [4]: 9.8%
- inhibition [1]: Active
- inhibition [2]: Active
- Activity [9]: Non-toxic
- Activity [10]: inactive

SMILES: O=C(N/N=C\c1ccc(Cl)cc1)[C@H](Cc1ccccc1)N1C(=O)c2ccccc2C1=O
- inhibition [3]: Active
- inhibition [4]: Active

SMILES: CC[C@H](C)[C@@H](C(=O)N/N=C\c1ccc(Cl)cc1)N1C(=O)c2ccccc2C1=O
- inhibition at 10 µM [3]: 13%
- Activity [8]: Active
- inhibition [4]: Active
- inhibition [1]: Active
- inhibition [2]: Active
- Activity [6]: Toxic
- Activity [10]: Active

SMILES: CCOC(=O)[C@H](Cc1ccccc1)N1C(=O)c2ccccc2C1=O
- inhibition [1]: Active
- inhibition [2]: Active

SMILES: O=C1CCC(N2C(=O)c3ccccc3C2=O)C(=O)N1 (configuration not stated) [THALIDOMIDE]
- inhibition at 10 µM [3]: 5%
- inhibition at 100 µM [4]: 5%
- inhibition [1]: Active
- inhibition [2]: Active
- Activity [9]: 2%
- Activity [6]: 2%

SMILES: C[C@@H](C(=O)N/N=C\c1ccc(Cl)cc1)N1C(=O)c2ccccc2C1=O
- inhibition [3]: Active
- inhibition [4]: Active

SMILES: COc1ccc(/C=N\NC(=O)[C@H](Cc2ccccc2)N2C(=O)c3ccccc3C2=O)cc1
- inhibition [1]: Active
- inhibition [2]: Active

SMILES: CCOC(=O)[C@H](C)N1C(=O)c2ccccc2C1=O
- inhibition [1]: Active
- inhibition [2]: Active

SMILES: CCOC(=O)[C@H]([C@@H](C)CC)N1C(=O)c2ccccc2C1=O
- inhibition [1]: Active
- inhibition [2]: Active

SMILES: CC(=O)c1ccccc1N1C(=O)c2ccccc2C1=O
- inhibition (INH) [11]: 57%
- inhibition (INH) [12]: 44%

SMILES: CC[C@H](C)[C@@H](C(=O)N/N=C\c1ccc(OC)cc1)N1C(=O)c2ccccc2C1=O
- inhibition [1]: Active
- inhibition [2]: Active

SMILES: CC[C@H](C)[C@@H](C(=O)N/N=C\c1ccc(Cl)c(Cl)c1)N1C(=O)c2ccccc2C1=O
- inhibition [3]: inactive
- inhibition at 100 µM [4]: 17%
- inhibition [1]: Active
- fold change (FC) [5]: 3
- inhibition [2]: Active
- Activity [9]: Non-toxic
- Activity [6]: Toxic
- inhibition [7]: Dose-dependent effect

SMILES: C[C@@H](C(=O)N/N=C\c1ccc(Cl)c(Cl)c1)N1C(=O)c2ccccc2C1=O
- inhibition [3]: Active
- inhibition [4]: Active

SMILES: C[C@@H](C(=O)O)N1C(=O)c2ccccc2C1=O
- inhibition [1]: Active
- inhibition [2]: Active

SMILES: O=C(N/N=C\c1ccc(Cl)c(Cl)c1)[C@H](Cc1ccccc1)N1C(=O)c2ccccc2C1=O
- inhibition [3]: Active
- inhibition [4]: Active
- Activity [6]: Toxic

SMILES: Nc1cccc2c1CN(C1CCC(=O)NC1=O)C2=O (configuration not stated) [LENALIDOMIDE]
- inhibition at 10 µM [3]: 14%
- Activity [8]: Active
- inhibition at 100 µM [4]: 14%
- fold change (FC) [13]: 2
- fold change (FC) [5]: 2
- Activity [9]: Non-toxic
- Activity [6]: Non-toxic
- Activity [10]: Active

SMILES: NNC(=O)[C@H](Cc1ccccc1)N1C(=O)c2ccccc2C1=O
- inhibition [1]: Active
- inhibition [2]: Active

SMILES: CC[C@H](C)[C@@H](C(=O)N/N=C\c1ccccc1)N1C(=O)c2ccccc2C1=O
- inhibition [3]: Active
- inhibition [4]: Active
- inhibition [1]: Active
- inhibition [2]: Active
- Activity [9]: Non-toxic
